Values joined by “and” are separate entries in the source; they are usually repeats but may differ in a detail not shown here. Equal values may be shown once.
What was measured:
HDAC8 [1] = target: T1, HDAC8 (Homo sapiens, UniProt Q9BY41); assay: HDAC8 (FDL) Fluor de Lys assay; format: biochemical; parameters: obtained from C; Romier (academic laboratory, not a vendor); details: read-out: HDAC8 (FDL) percent enzyme inhibition
T1 sequence (Q9BY41 1-377): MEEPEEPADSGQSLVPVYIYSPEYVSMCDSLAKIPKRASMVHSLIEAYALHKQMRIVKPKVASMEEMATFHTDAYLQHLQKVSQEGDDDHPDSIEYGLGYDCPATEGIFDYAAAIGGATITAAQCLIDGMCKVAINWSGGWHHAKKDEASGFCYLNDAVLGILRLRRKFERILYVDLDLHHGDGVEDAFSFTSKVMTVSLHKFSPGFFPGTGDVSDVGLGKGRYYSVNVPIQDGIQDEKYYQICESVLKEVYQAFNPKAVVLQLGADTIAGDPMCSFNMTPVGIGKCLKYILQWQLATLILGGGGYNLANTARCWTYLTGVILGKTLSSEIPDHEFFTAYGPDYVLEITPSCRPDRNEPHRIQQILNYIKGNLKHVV

TwinStrep-GST-HDAC10 = target: T2, TwinStrep-GST-HDAC10 (Homo sapiens, UniProt Q969S8); assay: HDAC10 TR-FRET assay (Tubastatin-AF647-Tracer displacement); format: binding; details: two separate measurements, each made in triplicate; read-out: HDAC10 FRET IC50
T2 construct: made in house; host or cells: Sf21 insect cells (baculovirus, pFastBac1)
T2 sequence (Q969S8 1-669): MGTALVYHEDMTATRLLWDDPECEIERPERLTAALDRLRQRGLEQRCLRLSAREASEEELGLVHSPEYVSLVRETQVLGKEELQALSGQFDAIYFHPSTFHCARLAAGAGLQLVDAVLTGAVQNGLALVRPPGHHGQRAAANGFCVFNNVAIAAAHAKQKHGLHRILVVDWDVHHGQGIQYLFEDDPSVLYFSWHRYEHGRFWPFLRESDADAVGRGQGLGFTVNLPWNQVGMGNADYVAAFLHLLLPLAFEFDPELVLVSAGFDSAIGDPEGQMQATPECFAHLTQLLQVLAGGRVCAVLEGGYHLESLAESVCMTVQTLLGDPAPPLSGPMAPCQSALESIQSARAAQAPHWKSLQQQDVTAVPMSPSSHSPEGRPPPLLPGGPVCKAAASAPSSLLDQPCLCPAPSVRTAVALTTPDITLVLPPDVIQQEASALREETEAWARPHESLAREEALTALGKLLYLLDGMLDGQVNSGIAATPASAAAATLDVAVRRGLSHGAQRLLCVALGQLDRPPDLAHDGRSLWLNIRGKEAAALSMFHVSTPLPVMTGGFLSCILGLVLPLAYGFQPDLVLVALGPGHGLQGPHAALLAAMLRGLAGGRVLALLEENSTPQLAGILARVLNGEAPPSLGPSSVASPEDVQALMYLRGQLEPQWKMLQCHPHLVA

HDAC1 [2] = target: T3, HDAC1 (Homo sapiens, UniProt Q13547); assay: HDAC1 (ZMAL) fluorogenic activity assay; format: biochemical; details: read-out: HDAC1 (ZMAL) percent enzyme inhibition
T3 construct: purchased BPS Bioscience 50051

HDAC6 [3] = target: T4, HDAC6 (Homo sapiens, UniProt Q9UBN7); assay: HDAC6 (ZMAL) fluorogenic activity assay; format: biochemical; details: read-out: HDAC6 (ZMAL) percent enzyme inhibition
T4 construct: purchased BPS Bioscience 50006
T4 sequence (Q9UBN7 1-1215): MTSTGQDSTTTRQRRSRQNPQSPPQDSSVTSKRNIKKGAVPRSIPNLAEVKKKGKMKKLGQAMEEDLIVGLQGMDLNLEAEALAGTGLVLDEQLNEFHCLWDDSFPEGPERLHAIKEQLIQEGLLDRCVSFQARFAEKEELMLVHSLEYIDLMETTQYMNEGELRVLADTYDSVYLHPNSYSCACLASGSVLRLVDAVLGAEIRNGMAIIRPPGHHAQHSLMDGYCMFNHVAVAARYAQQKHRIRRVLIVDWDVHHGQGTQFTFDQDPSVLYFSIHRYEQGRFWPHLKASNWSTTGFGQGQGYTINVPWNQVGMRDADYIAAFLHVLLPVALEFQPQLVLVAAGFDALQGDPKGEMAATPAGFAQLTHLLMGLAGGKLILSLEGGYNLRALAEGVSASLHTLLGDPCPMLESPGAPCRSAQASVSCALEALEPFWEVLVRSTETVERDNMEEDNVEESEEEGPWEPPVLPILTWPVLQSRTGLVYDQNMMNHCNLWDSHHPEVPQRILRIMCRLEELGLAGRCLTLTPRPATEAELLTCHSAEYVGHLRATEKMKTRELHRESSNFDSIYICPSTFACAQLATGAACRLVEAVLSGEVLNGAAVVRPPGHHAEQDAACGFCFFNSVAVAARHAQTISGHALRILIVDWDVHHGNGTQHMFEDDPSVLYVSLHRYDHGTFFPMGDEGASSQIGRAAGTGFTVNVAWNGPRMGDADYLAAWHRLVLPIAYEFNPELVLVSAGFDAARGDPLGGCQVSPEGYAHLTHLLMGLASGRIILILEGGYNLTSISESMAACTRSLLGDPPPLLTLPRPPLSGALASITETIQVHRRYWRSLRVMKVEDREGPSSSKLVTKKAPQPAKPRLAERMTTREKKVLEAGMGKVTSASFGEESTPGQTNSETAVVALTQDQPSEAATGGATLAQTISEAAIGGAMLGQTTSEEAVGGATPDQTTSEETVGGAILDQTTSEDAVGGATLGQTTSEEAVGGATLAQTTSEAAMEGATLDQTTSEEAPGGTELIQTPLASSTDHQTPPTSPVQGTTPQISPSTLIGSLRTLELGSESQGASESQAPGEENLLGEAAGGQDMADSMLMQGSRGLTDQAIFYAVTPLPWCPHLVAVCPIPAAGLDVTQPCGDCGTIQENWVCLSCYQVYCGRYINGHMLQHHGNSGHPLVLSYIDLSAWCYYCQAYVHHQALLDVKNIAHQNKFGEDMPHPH

zebrafish HDAC10 = target: T5, zebrafish HDAC10 (Danio rerio, UniProt F1QCV2); assay: Zebrafish HDAC10 assay (zHDAC10), Ac-spermidine-AMC substrate; format: biochemical; details: read-out: zHDAC10 percent enzyme inhibition
T5 sequence (F1QCV2 1-675): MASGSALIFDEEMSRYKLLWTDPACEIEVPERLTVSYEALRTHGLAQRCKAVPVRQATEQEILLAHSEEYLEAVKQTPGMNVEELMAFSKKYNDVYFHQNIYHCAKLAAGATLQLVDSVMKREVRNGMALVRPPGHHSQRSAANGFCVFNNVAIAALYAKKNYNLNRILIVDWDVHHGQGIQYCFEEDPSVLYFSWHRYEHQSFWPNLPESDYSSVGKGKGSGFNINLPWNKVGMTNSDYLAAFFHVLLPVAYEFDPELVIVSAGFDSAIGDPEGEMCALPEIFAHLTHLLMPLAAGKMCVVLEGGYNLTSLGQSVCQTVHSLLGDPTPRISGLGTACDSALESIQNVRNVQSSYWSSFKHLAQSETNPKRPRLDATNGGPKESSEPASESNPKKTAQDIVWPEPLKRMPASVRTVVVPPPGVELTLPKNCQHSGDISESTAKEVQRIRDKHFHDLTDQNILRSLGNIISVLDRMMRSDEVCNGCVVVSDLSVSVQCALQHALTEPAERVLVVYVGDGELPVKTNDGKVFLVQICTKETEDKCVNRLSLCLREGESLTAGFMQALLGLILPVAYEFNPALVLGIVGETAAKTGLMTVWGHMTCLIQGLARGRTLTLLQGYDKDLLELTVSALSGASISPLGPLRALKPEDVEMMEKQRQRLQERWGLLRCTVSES

[4] = target: T6, HDAC10-nanoluciferase fusion in HeLa cells (Homo sapiens, UniProt Q969S8); assay: BRET intracellular target engagement assay, HDAC10
T6 sequence (Q969S8 1-669): T2 sequence (Q969S8 1-669)

[5] = target: T7, HDAC6 (2nd catalytic domain)-nanoluciferase fusion in HeLa cells (Homo sapiens, UniProt Q9UBN7); assay: BRET intracellular target engagement assay, HDAC6
T7 sequence (Q9UBN7 482-800 limits assumed): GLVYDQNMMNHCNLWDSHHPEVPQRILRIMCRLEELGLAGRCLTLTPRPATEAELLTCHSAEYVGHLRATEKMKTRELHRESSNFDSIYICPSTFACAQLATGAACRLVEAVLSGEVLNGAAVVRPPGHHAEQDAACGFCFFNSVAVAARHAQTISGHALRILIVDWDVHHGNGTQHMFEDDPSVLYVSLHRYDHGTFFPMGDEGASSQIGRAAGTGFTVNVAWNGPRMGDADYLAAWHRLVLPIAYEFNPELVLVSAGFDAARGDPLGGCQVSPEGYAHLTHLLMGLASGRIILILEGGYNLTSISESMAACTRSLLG

HDAC1 [6] = target: T3, HDAC1; assay: HDAC-Glo I/II assay, HDAC1; format: biochemical; details: recombinant human HDAC1, HDAC-Glo; read-out: pIC50 HDAC1 Glo (converted)
HDAC3/NcoR2 complex = target: T8, HDAC3/NcoR2 complex (Homo sapiens, UniProt O15379); assay: HDAC-Glo I/II assay, HDAC3/NcoR2 complex; format: biochemical; details: recombinant human HDAC3/NcoR2 complex, read-out: pIC50 HDAC3 Glo (converted)
T8 construct: purchased BPS Bioscience 50003

HDAC6 [7] = target: T4, HDAC6; assay: HDAC-Glo I/II assay, HDAC6; format: biochemical; details: recombinant human HDAC6, HDAC-Glo; read-out: pIC50 HDAC6 Glo (converted)
HDAC8 [8] = target: T1, HDAC8; assay: HDAC-Glo I/II assay, HDAC8; format: biochemical; parameters: purchased BPS Bioscience 50008; details: recombinant human HDAC8, HDAC-Glo; read-out: pIC50 HDAC8 Glo (converted)

T3 sequence (Q13547 whole entry): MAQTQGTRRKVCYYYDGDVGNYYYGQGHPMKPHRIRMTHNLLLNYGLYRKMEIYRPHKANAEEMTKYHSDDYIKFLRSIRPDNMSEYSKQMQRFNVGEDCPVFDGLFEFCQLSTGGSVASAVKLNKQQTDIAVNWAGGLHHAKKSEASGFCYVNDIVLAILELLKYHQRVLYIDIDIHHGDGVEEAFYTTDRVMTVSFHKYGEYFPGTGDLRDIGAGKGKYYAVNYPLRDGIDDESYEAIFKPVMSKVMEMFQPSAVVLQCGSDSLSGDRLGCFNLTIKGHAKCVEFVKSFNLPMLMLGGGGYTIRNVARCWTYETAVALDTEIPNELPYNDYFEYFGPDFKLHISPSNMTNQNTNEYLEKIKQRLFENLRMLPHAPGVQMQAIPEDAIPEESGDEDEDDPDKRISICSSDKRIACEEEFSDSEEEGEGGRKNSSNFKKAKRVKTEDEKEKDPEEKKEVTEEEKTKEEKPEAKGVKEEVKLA
T8 sequence (O15379 whole entry): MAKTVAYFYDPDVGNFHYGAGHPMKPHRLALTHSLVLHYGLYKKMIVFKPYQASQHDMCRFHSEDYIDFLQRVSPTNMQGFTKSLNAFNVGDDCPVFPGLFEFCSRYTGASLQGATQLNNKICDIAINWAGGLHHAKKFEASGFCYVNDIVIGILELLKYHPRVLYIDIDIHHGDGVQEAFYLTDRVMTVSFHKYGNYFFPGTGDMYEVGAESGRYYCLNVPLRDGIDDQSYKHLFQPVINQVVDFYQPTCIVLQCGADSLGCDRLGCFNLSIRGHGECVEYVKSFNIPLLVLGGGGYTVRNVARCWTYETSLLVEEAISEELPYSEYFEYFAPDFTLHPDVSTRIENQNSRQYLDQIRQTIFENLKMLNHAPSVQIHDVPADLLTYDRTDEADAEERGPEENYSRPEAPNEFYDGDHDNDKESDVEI
T8 sequence (Q9Y618 395-489 partner limits assumed): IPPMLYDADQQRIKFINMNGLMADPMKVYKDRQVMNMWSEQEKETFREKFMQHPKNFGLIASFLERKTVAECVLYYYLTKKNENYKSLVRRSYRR

Row | Structure (SMILES) | inhibition at 1 µM (HDAC8 [1]) [%] | inhibition at 10 µM (HDAC8 [1]) [%] | IC50 (TwinStrep-GST-HDAC10) | inhibition at 1 µM (HDAC1 [2]) [%] | inhibition at 10 µM (HDAC1 [2]) [%] | inhibition at 1 µM (HDAC6 [3]) [%] | inhibition at 10 µM (HDAC6 [3]) [%] | inhibition at 0.1 µM (zebrafish HDAC10) [%] | inhibition at 1 µM (zebrafish HDAC10) [%] | inhibition at 10 µM (zebrafish HDAC10) [%] | inhibition at 50 µM (HDAC1 [2]; at 50 μM) [%] | inhibition at 50 µM (HDAC6 [3]; at 50 μM) [%] | IC50 [4] [µM] | IC50 [5] [µM] | IC50 (HDAC1 [6]) [µM] | IC50 (HDAC3/NcoR2 complex) [µM] | IC50 (HDAC6 [7]) [µM] | IC50 (HDAC8 [8]) [µM]
1 | O=C(NO)C1CCN(CCc2ccccc2)CC1 [DH22, N-Hydroxy-1-phenethylpiperidine-4-carboxamide] | 27 | 56 | 0.175 µM and 0.26 µM | -1 | 7 | -2 | 17 | 13 | 20 | 80 |  |  |  |  |  |  |  | 
2 | O=C(NO)C1CCN(CC(c2ccccc2)c2ccccc2)CC1 [DH40, 1-(2,2-Diphenylethyl)-N-hydroxypiperidine-4-carboxamide] | 42 | 75 | 2.32 µM and 2.97 µM | -7 | 8 | 19 | 65 | 1 | 9 | 27 | 24 | 88 |  |  |  |  |  | 
3 | CN(CCCC(=O)NO)CCCC(=O)Nc1ccccc1 [DKFZ-775, N-Hydroxy-4-(methyl(4-oxo-4-(phenylamino)butyl)amino)butanamide] |  |  |  |  |  |  |  |  |  |  |  |  |  | > 39.8 | 50.1 | > 100 | 12.6 | 25.1

Now from value to compound:

Row | inhibition at 1 µM (HDAC8 [1]) [%] | inhibition at 10 µM (HDAC8 [1]) [%] | IC50 (TwinStrep-GST-HDAC10) | inhibition at 1 µM (HDAC1 [2]) [%] | inhibition at 10 µM (HDAC1 [2]) [%] | inhibition at 1 µM (HDAC6 [3]) [%] | inhibition at 10 µM (HDAC6 [3]) [%] | inhibition at 0.1 µM (zebrafish HDAC10) [%] | inhibition at 1 µM (zebrafish HDAC10) [%] | inhibition at 10 µM (zebrafish HDAC10) [%] | inhibition at 50 µM (HDAC1 [2]; at 50 μM) [%] | inhibition at 50 µM (HDAC6 [3]; at 50 μM) [%] | IC50 [4] [µM] | IC50 [5] [µM] | IC50 (HDAC1 [6]) [µM] | IC50 (HDAC3/NcoR2 complex) [µM] | IC50 (HDAC6 [7]) [µM] | IC50 (HDAC8 [8]) [µM] | Structure (SMILES)
4 | 36 | 61 | 2.45 µM and 3.43 µM | 8 | 18 | 22 | 46 | 9 | 15 | 50 |  |  |  |  |  |  |  |  | O=C(NO)C1CCN(Cc2ccccc2)CC1 [DH25, 1-Benzyl-N-hydroxypiperidine-4-carboxamide]
5 | 37 | 70 | 1.78 µM and 2.56 µM | 5 | 35 | 11 | 57 | 7 | 24 | 69 |  |  |  |  |  |  |  |  | O=C(NO)C1CCN(Cc2ccc(-c3ccccc3)cc2)CC1 [DH35, 1-([1,1′-Biphenyl]-4-ylmethyl)-N-hydroxypiperidine-4-carboxamide]
6 | 33 | 69 |  | 7 | 6 | -4 | 18 | 7 | 40 | 67 |  |  | 0.375 |  |  |  |  |  | O=C(NO)C1CCN(CCc2ccc(Br)cc2)CC1 [DH67, 1-(4-Bromophenethyl)-N-hydroxypiperidine-4-carboxamide]
7 | 27 | 70 |  | -5 | 6 | -2 | 28 | 0 | 10 | 61 |  |  | 0.391 |  |  |  |  |  | O=C(NO)C1CCN(CCc2cccc(Br)c2)CC1 [DH71, 1-(3-Bromophenethyl)-N-hydroxypiperidine-4-carboxamide]

— US20220151962A1, “NOVEL INHIBITORS OF HISTONE DEACETYLASE 10” (Deutsches Krebsforschungszentrum, priority 2019, published 2022)
